Reference: patent publication US20250228239A1, “MOLECULES HAVING PESTICIDAL UTILITY, AND INTERMEDIATES, COMPOSITIONS, AND PROCESSES, RELATED THERETO” (priority 2024, published 2025)
Like-named read-outs stand apart in the source and are kept apart here.

Columns and labels:
Format in all cases: in vivo
[1] = tested on: Beet Armyworm (Spodoptera exigua, LAPHEG); assay: Bioassays on Beet Armyworm (BAW), 128-well diet tray assay; conditions: Spodoptera exigua
Method in brief: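 Larvae at second instar are exposed on dried, compound-treated diet (50 μg/cm^2, delivered in 90:10 acetone-water) in eight replicate wells. After five to seven days at 25° C., 14:10 light-dark, percent mortality in each well is scored and the eight wells averaged.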

[2] = tested on: Cabbage Looper (Trichoplusia ni, TRIPNI); assay: Bioassays on Cabbage Looper (CL), 128-well diet tray assay; conditions: Trichoplusia ni
Method in brief: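 Percent mortality, averaged across eight replicate wells, after second-instar larvae (1–5 per well) fed for five to seven days on diet dosed at 50 μg/cm^2. Compound was applied in acetone-water 90:10 and dried; trays kept vented at 25° C under 14:10 photoperiod.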

[3] = tested on: Green Peach Aphid (Myzus persicae, MYZUPE); assay: Bioassays on Green Peach Aphid (GPA), foliar spray on cabbage seedlings; conditions: 72 h
Protocol: Certain molecules disclosed in this document were tested against GPA using procedures described in the following example. In the reporting of the results, the “GPA & YFM Rating Table” was used (See Table Section).
Cabbage seedlings grown in 3-inch pots, with 2-3 small (3-5 cm) true leaves, were used as test substrate. The seedlings were infested with 20-50 GPA (wingless adult and nymph stages) one day prior to chemical application. Four pots with individual seedlings were used for each treatment. Test molecules (2 mg) were dissolved in 2 mL of acetone/methanol (1:1) solvent, forming stock solutions of 1000 ppm test molecule. The stock solutions were diluted 5× with 0.025% Tween 20 in water to obtain the solution at 200 ppm test molecule. A hand-held aspirator-type sprayer was used for spraying a solution to both sides of […] leaves until runoff. Reference plants (solvent check) were sprayed with the diluent only containing 20% by volume of acetone/methanol (1:1) solvent. Treated plants were held in a holding room for three days at approximately 25° C. and ambient relative humidity (RH) prior to grading. Evaluation was conducted by counting the number of live aphids per plant under a microscope. Percent control was measured using Abbott's correction formula (W. S. Abbott, “A Method of Computing the Effectiveness of an Insecticide” J. Econ. Entomol. 18 (1925), pp. 265-267) as follows. Corrected % Control=100*(X−Y)/X where X=No. of live aphids on solvent check plants and Y=No. of live aphids on treated plants. The results are indicated in the table entitled “Table ABC: Biological Results” (See Table Section).

[4] = tested on: Yellow Fever Mosquito (Aedes aegypti, AEDSAE); conditions: for YFM: Table ABC: Biological Results, species YFM
Method in brief: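 Larvae ~1 day old, in liver powder/water; compound from 4000 ppm DMSO stock diluted with water/acetone (90:10); 6 reps; lidded, RT, 3 d; mortality scored per well, rated.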

[5] = Table ABC: Biological Results, species BAW, read-out: BAW
[6] = Table ABC: Biological Results, species CL, read-out: CL
[7] = Table ABC: Biological Results, species GPA, read-out: GPA
[8] = Beet Armyworm, rating class, read-out: BAW
[9] = Cabbage Looper, rating class, read-out: CL
[10] = Green Peach Aphid, rating class, read-out: GPA

Row | SMILES | pest or weed control at 50 µg/cm2 [1, 5] [%] | pest or weed control at 50 µg/cm2 [2, 6] [%] | pest or weed control at 200 µg/mL [3, 7] [%] | pest or weed control at 50 µg/cm2 [1, 8] [%] | pest or weed control at 50 µg/cm2 [2, 9] [%] | pest or weed control at 200 µg/mL [3, 10] [%] | other results
1 | Nc1c(F)ccc(NC(=O)c2cc(NC(=O)[C@H]3[C@H](c4ccc(F)c(C(F)(F)F)c4)C3(Cl)Cl)ccc2Cl)c1F (relative stereo) [DP8, trans-N-(3-amino-2,4-difluorophenyl)-2-chloro-5-(2,2-dichloro-3-(4-fluoro-3-(trifluoromethyl)phenyl)cyclopropane-1-carboxamido)benzamide] | – | – | – | – | – | – | mortality at 50 µg/cm2 ([1]; 168 h, second instar larvae, 50 μg/cm^2 of test molecule on artificial diet, 25° C., five to seven days, average of eight wells, read-out: BAW % Control (or Mortality) rating): 50 to 100%; pest or weed control at 50 µg/cm2 ([1]; Beet Armyworm, Table ABC / ABC-DP rating, read-out: BAW rating): 50 to 100%; mortality at 50 µg/cm2 ([2]; 168 h, second instar larvae, 50 μg/cm^2 of test molecule on artificial diet, 25° C., five to seven days, average of eight wells, read-out: CL % Control (or Mortality) rating): 50 to 100%; pest or weed control at 50 µg/cm2 ([2]; Cabbage Looper, Table ABC / ABC-DP rating, read-out: CL rating): 50 to 100%; mortality at 200 ppm ([3]; 200 ppm test molecule sprayed on infested cabbage seedlings, three days, Abbott's corrected % control, read-out: GPA % Control (or Mortality) rating): 80 to 100%; pest or weed control at 200 µg/mL ([3]; Green Peach Aphid, Table ABC / ABC-DP rating, read-out: GPA rating): 80 to 100%; YFM rating ([4]; Yellow Fever Mosquito, Table ABC / ABC-DP rating): A (80–100); YFM % Control (or Mortality) rating ([4]; about 1 day-old larvae, 4000 ppm master solution diluted with 90:10 water/acetone, 15 μL per well plus 220 μL larval mixture, 3 days, mortality): A (80–100)
2 | O=C(Nc1ccc(F)cc1F)c1cc(NC(=O)[C@H]2[C@H](c3cc(Cl)c(Cl)c(Br)c3)C2(Cl)Cl)ccc1Cl (relative stereo) [F1007, trans-5-(3-(3-Bromo-4,5-dichlorophenyl)-2,2-dichlorocyclopropane-1-carboxamido)-2-chloro-N-(2,4-difluorophenyl)benzamide] | 50 to 100 | 50 to 100 | 80 to 100 | – | – | – | YFM [4]: A (80–100)
3 | C#CCN(C(=O)c1cc(NC(=O)[C@H]2[C@H](c3cc(Cl)cc(Cl)c3)C2(Cl)Cl)ccc1Cl)c1ccc(F)cc1C#N (relative stereo) [F1072, trans-2-Chloro-N-(2-cyano-4-fluorophenyl)-5-(2,2-dichloro-3-(3,5-dichlorophenyl)cyclopropane-1-carboxamido)-N-(prop-2-yn-1-yl)benzamide] | 50 to 100 | 50 to 100 | 0 to 80 | – | – | – | YFM [4]: A (80–100)
4 | O=C(Nc1cc(NC(=O)C(Cl)Cl)c(F)cc1F)c1cc(NC(=O)[C@H]2[C@H](c3ccc(Cl)c(Cl)c3)C2(Cl)Cl)ccc1Cl [F1244, 2-Chloro-5-((1R,3R)-2,2-dichloro-3-(3,4-dichlorophenyl)cyclopropane-1-carboxamido)-N-(5-(2,2-dichloroacetamido)-2,4-difluorophenyl)benzamide] | 50 to 100 | 50 to 100 | 0 to 80 | – | – | – | –
5 | Nc1c(F)ccc(NC(=O)c2cc(NC(=O)[C@H]3[C@H](c4ccc(F)c(Cl)c4)C3(Cl)Cl)cc(F)c2Cl)c1F [F1255, N-(3-amino-2,4-difluorophenyl)-2-chloro-5-((1R,3R)-2,2-dichloro-3-(3-chloro-4-fluorophenyl)cyclopropane-1-carboxamido)-3-fluorobenzamide] | 50 to 100 | 50 to 100 | 80 to 100 | – | – | – | –
6 | O=C(Nc1ccc(F)c(NC(=O)C(F)F)c1F)c1cc(NC(=O)[C@H]2[C@H](c3ccc(F)c(Cl)c3)C2(Cl)Cl)cc(F)c1Cl [F1256, 2-Chloro-5-((1R,3R)-2,2-dichloro-3-(3-chloro-4-fluorophenyl)cyclopropane-1-carboxamido)-N-(3-(2,2-difluoroacetamido)-2,4-difluorophenyl)-3-fluorobenzamide] | 50 to 100 | 50 to 100 | 80 to 100 | – | – | – | –
7 | O=C(Nc1c(F)cc(NC(=O)C(F)(F)F)cc1F)c1cc(NC(=O)[C@H]2[C@H](c3ccc(Cl)c(Cl)c3)C2(Cl)Cl)ccc1Cl [F1261, 2-Chloro-5-((1R,3R)-2,2-dichloro-3-(3,4-dichlorophenyl)cyclopropane-1-carboxamido)-N-(2,6-difluoro-4-(2,2,2-trifluoroacetamido)phenyl)benzamide] | 50 to 100 | 50 to 100 | 80 to 100 | – | – | – | –
8 | CC(=O)Nc1cc(F)c(NC(=O)c2cc(NC(=O)[C@H]3[C@H](c4ccc(Cl)c(Cl)c4)C3(Cl)Cl)ccc2Cl)c(F)c1 [F1262, N-(4-Acetamido-2,6-difluorophenyl)-2-chloro-5-((1R,3R)-2,2-dichloro-3-(3,4-dichlorophenyl)cyclopropane-1-carboxamido)benzamide] | 50 to 100 | 50 to 100 | 80 to 100 | – | – | – | –
9 | CC(=O)Nc1ccc(F)c(NC(=O)c2cc(NC(=O)[C@H]3[C@H](c4cc(Cl)cc(Cl)c4)C3(Cl)Cl)cc(F)c2Cl)c1F [F1505, N-(3-acetamido-2,6-difluorophenyl)-2-chloro-5-((1R,3R)-2,2-dichloro-3-(3,5-dichlorophenyl)cyclopropane-1-carboxamido)-3-fluorobenzamide] | – | – | – | 50 to 100 | 50 to 100 | 0 to 80 | –
10 | O=C(Nc1ccc(F)c(NC(=O)C(F)F)c1F)c1cc(NC(=O)[C@H]2[C@H](c3ccc(F)c(C(F)(F)F)c3)C2(Cl)Cl)ccc1F [F1530, 5-((1R,3R)-2,2-Dichloro-3-(4-fluoro-3-(trifluoromethyl)phenyl)cyclopropane-1-carboxamido)-N-(3-(2,2-difluoroacetamido)-2,4-difluorophenyl)-2-fluorobenzamide] | – | – | – | 50 to 100 | 50 to 100 | 0 to 80 | –
11 | CC(=O)Nc1c(F)ccc(NC(=O)c2cc(NC(=O)[C@H]3[C@H](c4ccc(F)c(C(F)(F)F)c4)C3(Cl)Cl)ccc2F)c1F [F1531, N-(3-acetamido-2,4-difluorophenyl)-5-((1R,3R)-2,2-dichloro-3-(4-fluoro-3-(trifluoromethyl)phenyl)cyclopropane-1-carboxamido)-2-fluorobenzamide] | – | – | – | 50 to 100 | 50 to 100 | 0 to 80 | –
12 | CC(=O)Nc1c(F)ccc(NC(=O)c2cc(NC(=O)[C@H]3[C@H](c4ccc(Cl)c(C(F)(F)F)c4)C3(Cl)Cl)ccc2Cl)c1F [F1658, N-(3-Acetamido-2,4-difluorophenyl)-2-chloro-5-((1R,3R)-2,2-dichloro-3-(4-chloro-3-(trifluoromethyl)phenyl)cyclopropane-1-carboxamido)benzamide] | – | – | – | 50 to 100 | 50 to 100 | 0 to 80 | –
13 | CCOC(C)C(=O)Nc1c(F)ccc(NC(=O)c2cc(NC(=O)[C@H]3[C@H](c4ccc(F)c(Cl)c4)C3(Cl)Cl)ccc2Cl)c1F (stereo partly drawn) [F1698, 2-Chloro-5-((1R,3R)-2,2-dichloro-3-(3-chloro-4-fluorophenyl)cyclopropane-1-carboxamido)-N-(3-(2-ethoxypropanamido)-2,4-difluorophenyl)benzamide] | – | – | – | 50 to 100 | 50 to 100 | 0 to 80 | –
14 | N#CCC(=O)Nc1c(F)ccc(NC(=O)c2cc(NC(=O)[C@H]3[C@H](c4ccc(F)c(Cl)c4)C3(Cl)Cl)ccc2Cl)c1F [F1700, 2-Chloro-N-(3-(2-cyanoacetamido)-2,4-difluorophenyl)-5-((1R,3R)-2,2-dichloro-3-(3-chloro-4-fluorophenyl)cyclopropane-1-carboxamido)benzamide] | – | – | – | 50 to 100 | 50 to 100 | 0 to 80 | –
15 | COCC(=O)Nc1c(F)ccc(NC(=O)c2cc(NC(=O)[C@H]3[C@H](c4ccc(F)c(C(F)(F)F)c4)C3(Cl)Cl)ccc2Cl)c1F [F1724, 2-Chloro-5-((1R,3R)-2,2-dichloro-3-(4-fluoro-3-(trifluoromethyl)phenyl)cyclopropane-1-carboxamido)-N-(2,4-difluoro-3-(2-methoxyacetamido)phenyl)benzamide] | – | – | – | 50 to 100 | 50 to 100 | 80 to 100 | –
